Like-named read-outs stand apart in the source and are kept apart here.

For assay [1], the system named is laccase from Pleurotus eryngii. To be noted: cited from earlier work; for Ki: ABTS as substrate, mixed type of inhibition ref 85.
Assay [2] has as its target laccase from Trametes versicolor. Nature of the assay: Laccase enzyme inhibition assay with syringaldazine as substrate. The assay is classed as biochemical. On the set-up: key to The type of inhibition: a: competitive; b: uncompetitive; c: not determined; d: non-competitive. Here is the method:
The activity of laccase was determined using the procedure described by Leonowicz and Grzywnowicz. Basically, a standard reaction mixture contained the enzyme in McIlvaine buffer (1.5 mL, pH 5.3) in the presence or absence of tested compounds (0.1 mL) and substrate – syringaldazine (0.1 mL). Two water-miscible media were tested as suitable co-solvents for hydrazide-hydrazones which are poorly soluble in water. For that purpose, the stability of laccase (40 nM, McIlvaine buffer, pH 5.3) in methanol and DMSO (6.25% v/v) at 25 °C was investigated (see Supplementary Material). The samples containing the enzyme, with a volumetric buffer–co-solvent ratio of 15:1, were withdrawn in different time intervals for 1500 min. A reaction system contained the 1.6 mL of the collected sample and 0.1 mL of syringaldazine (5.9 µM). Laccase activity was determined spectrophotometrically (UV-VIS 1800, Shimadzu, Reinach, Switzerland) by monitoring the changes in absorbance at 525 nm resulted from oxidation of the substrate syringaldazine with an extinction coefficient ε0 = 65000 M^−1·cm^−1 [99]. Kinetic parameters, Km and k3 were determined for two protein concentrations (20 and 40 nM) and with the nine concentrations of syringaldazine (0.59 to 20 µM), using the Michaelis-Menten model, Equation (1):V = Vmax · CS/(Km + CS), k3 = Vmax/CE(1) where Km [µM], k3 [min^–1] – kinetic constants, Vmax – maximal velocity [µM·min^–1], CS – substrate concentration [µM], CE – enzyme concentration [µM].
The parameters of the function were estimated using the nonlinear least square method in Matlab (The Mathworks, R2019a Version 9.6, academic licence). The method was used simultaneously for datasets obtain for different enzyme concertation. The common minimum of error function was found for all considered datasets resulting in one common estimate of each model parameter. The goodness of fit was assessed using the coefficient of determination (R^2); the sum of squared errors (SSE) and root mean squared error (RMSE). The 25 hydrazide-hydrazones, 4-hydroxybenzoic acid (control, 4-HBA), 4-hydroxybenzohydrazide (4a – 4-HBAH), and sodium azide (control) were tested against laccase in the standard reaction mixture. Prior to the substrate addition, the laccase and tested compound were pre-incubated for 10 min at 25 °C. At least three inhibitor concentrations were used in each experiment. All measurements were performed in triplicate. To determine the type of inhibition Lineweaver–Burk transformation was used applying the following equations for competitive (2), uncompetitive (3) and non-competitive model (4). The parameters of these equations were estimated using the linear least square method. 1/V = Km/Vmax · (1 + Ci/Ki) · 1/CS + 1/Vmax(2) 1/V = Km/Vmax · 1/CS + 1/Vmax · (1 + Ci/Ki)(3) 1/V = Km/Vmax · (1 + Ci/Ki) · 1/CS + 1/Vmax · (1 + Ci/Ki)(4) where Km [µM]—Michaelis-Menten constant, Vmax—maximal velocity [µM·min^–1], Ki—inhibition constant [µM], CS—substrate concentration [µM], Ci—inhibitor concentration [µM].

Assay [3] has as its target laccase from Pleurotus ostreatus. The conditions noted are these: ABTS as substrate ref 86; cited from earlier work.

Take `[N-]=[N+]=[N-].[Na+]` [NaN3, sodium azide]: the type of inhibition result is “mixed type of inhibition” in assay [1] (ABTS as substrate ref 85), “non-competitive” in assay [2] (Lineweaver-Burk transformation) and “non-competitive” in assay [3]. Besides, the Ki in assay [1] (read-out: Kic) was 17.6 µM; in assay [1] (read-out: Kiu), 10.6 µM; in assay [2] (25 °C, pH 5.3, syringaldazine substrate, 6.25% v/v organic co-solvent), 2720 ± 300 nM; in assay [3], 16.5 µM. Moreover, the “The type of inhibition” value in assay [2] (Lineweaver-Burk transformation) is listed as “d”.

The values are drawn from publication PMC7179439, “Synthesis and Structure-Activity Relationship Studies of Hydrazide-Hydrazones as Inhibitors of Laccase from Trametes versicolor” (Molecules, 2020).
